PubChem BioAssay AID2151 (NMMLSC, 2009)
Calls of active or inactive are those of the source. No rule for the calls is given here.

molecular target: MEK5 PB1 domain binding to MEKK2 (MAP3K2) mutant PB1, human; experiment: blockers of MEK5 association with mutant MEKK2 – biochemical, bead multiplex flow cytometry, SAR follow-up (AID 2151); settings: Bead-based multiplex flow cytometry

EC50 | SMILES
> 30 µM (inactive) | c1ccc(-c2nnc3sc(C4CCCCC4)nn23)nc1
> 30 µM (inactive) | COc1cc([N+](=O)[O-])ccc1-c1nn2c(-c3ccco3)nnc2s1
> 30 µM (inactive) | c1csc(Cc2nn3c(-c4ccncc4)nnc3s2)c1
> 30 µM (inactive) | COc1cc([N+](=O)[O-])ccc1-c1nn2c(-c3ccccn3)nnc2s1
> 30 µM (inactive) | COc1ccc(-c2nn3c(-c4ccccn4)nnc3s2)cc1OC
> 30 µM (inactive) | COc1cccc(-c2nn3c(-c4ccccn4)nnc3s2)c1
> 30 µM (inactive) | c1ccc(-c2nnc3sc(C4CCCCCC4)nn23)nc1
> 30 µM (inactive) | c1c[nH]c(-c2nn3c(-c4ccco4)nnc3s2)c1
> 30 µM (inactive) | c1coc(-c2nnc3sc(C4CCCCC4)nn23)c1
> 30 µM (inactive) | c1ccc(-c2nnc3sc(-c4ccc[nH]4)nn23)nc1
> 30 µM (inactive) | CCOc1cccc(-c2nn3c(-c4cccs4)nnc3s2)c1
> 30 µM (inactive) | CCOc1cccc(-c2nn3c(-c4ccco4)nnc3s2)c1
> 30 µM (inactive) | c1coc(-c2nnc3sc(C4CCCCCC4)nn23)c1
